Laboratory results reported in patent US20230357134A1, “AGENTS FOR USE IN THE TREATMENT OF AMYLOIDOSIS” (UCL BUSINESS LTD, priority 2020, published 2023).

Tests used:
Rat IV pharmacokinetics = settings: in vivo, 1 mg/kg, 1 mpk, read-out: Rat IV PK t½ (converted)
[1] = molecular target: T1, recombinant Val122Ile TTR (Homo sapiens, UniProt P02766, V142I); test: Mechano-enzymatic fibrillogenesis, TTR amyloid by ThT emission fluorescence; assay type: biochemical; settings: equimolar ligand, 96 h pellets, normalized to 100 % without ligand, mean (SD)
T1 construct: the non-covalently associated protomers, of mass 13,761, each contain 127 residues; His6 (N); TEV cleavage site (N); made in house; host or cells: E. coli BL21 (DE3)
Protocol: (§1) Briefly, fibrillogenesis of recombinant Val122Ile TTR at 0.5 mg/ml (9 μM) in PBS, pH 7.4 was carried out in glass vials stirred at 1,400 rpm (IKA magnetic stirrer) and 37° C. in the presence and in the absence of trypsin (5 ng/μl). […] Each ligand was tested at 4 different concentrations (4.5, 9, 18, 36 μM respectively) corresponding to the following drug/TTR molar ratios of 0.5:1, 1:1, 2:1 and 4:1. Several dilutions of the drug stock solutions were made in order to add the same volume of DMSO to each sample. Control samples without drug were added with the same volume of DMSO only. To allow complete binding of ligand by TTR each sample was incubated for 30 min at 37° C. before addition of trypsin. Spectrophotometric turbidity at 400 nm was used to monitor fibril formation over time until it reached a plateau at 96 h. Aggregation of TTR in the presence of equimolar ligand concentrations was quantified as spectrophotometric turbidity at 400 nm as a proportion of 100% for aggregation of the protein in the absence of ligands (Table 2).
At the end of the 96 h aggregation, pellets were harvested from each protein sample by 20 min centrifugation at 11,600 g, thoroughly rinsed with PBS to remove non-bound ligand, resuspended with 100 μl PBS, pH 7.4 containing 10 μM ThT in Costar 96-well black-wall plates. Bottom fluorescence values (excitation 440 nm, emission 480 nm) were recorded using a BMG LABTECH FLUostar Omega plate reader. Each value was normalized to the ThT signal of the TTR sample without ligand (Table 2)

[2] = molecular target: T2, TTR in whole human plasma (Homo sapiens, UniProt P02766); test: Displacement of 125I-T4 from TTR in normal human plasma; assay type: binding; settings: wild type TTR, 30 min 37° C. with ligand, immunoprecipitation, mean of at least 3 replicates, read-out: D50 plasma
T2 construct: TTR in whole plasma, from individuals homozygous for wild type TTR; from tissue; host or cells: whole human plasma
Protocol: 3.2 Displacement of ^125-T4 from TTR in Normal Human Plasma.
The displacement of ^125I-T4 from TTR in whole plasma, from individuals homozygous for wild type TTR, was studied by incubating plasma with each ligand at increasing concentrations for 30 min at 37° C., further incubation with […] followed by measurement of the radioactivity in the immunoprecipitate obtained with anti-TTR antibodies. […] Percentage binding was plotted against the logarithm of the inhibitor concentration, and D50 (concentration of ligand reducing the binding of T4 by TTR by 50%) was determined using a four parameter dose-response curve with GraphPad Prism 5 (Table 1).

[3] = molecular target: T1, recombinant Val122Ile TTR; test: Mechano-enzymatic fibrillogenesis, TTR aggregation by turbidity at 400 nm; assay type: biochemical; settings: equimolar ligand, Val122Ile TTR 9 μM, trypsin, 96 h; 100 % = protein without ligand; mean (SD)
Protocol: as §1

[4] = Rat oral pharmacokinetics; settings: in vivo, 5 mg/kg, 5 mpk
(2H, 13C, 15N) TTR = molecular target: T3, (2H, 13C, 15N) TTR (Homo sapiens, UniProt P02766); test: 2D NMR [1H,15N] TROSY of TTR-ligand complexes; assay type: binding; settings: equimolar ligand, 90 μM TTR, PBS pH 7.4, 310K
T3 construct: the non-covalently associated protomers, of mass 13,761, each contain 127 residues; His6 (N); TEV cleavage site (N); made in house; host or cells: E. coli BL21 (DE3)
Protocol: Using the same methodology as in Corazza 2019, we have studied the effect of equimolar addition of T304 or B23 to a sample of 90 μM (^2H, ^13C,^15N) TTR in PBS buffer, pH 7.4. 2D NMR [^1H,[…]] TROSY spectra were acquired with a Bruker AVANCE 800 MHz Spectrometer at 310K. After the addition of T304 or B23 to TTR some of the amide peaks of the apo form vanish and new peaks of the holo species appear indicating the binding of T304 or B23 by TTR. The changes occur for specific TTR residues where the protein senses the chemical effect of the ligands or where the ligands induce structural changes in the protein. […] Analysis of the chemical shift perturbations in the holo TTR structure confirms the involvement of the halogen binding pocket in the binding but also highlights an effect that is well beyond the ligand binding site, involving the outer helix and the outer beta strands.

[5] = molecular target: T4, native recombinant wild type TTR (Homo sapiens, UniProt P02766); test: Kinetics of ligand binding by TTR (stopped flow quenching of intrinsic fluorescence); settings: for T 1/2: TTR 1 μM with equimolar ligand, 37° C., PBS pH 7.4, t½ = ln 2/k
T4 construct: the non-covalently associated protomers, of mass 13,761, each contain 127 residues; His6 (N); TEV cleavage site (N); made in house; host or cells: E. coli BL21 (DE3)
Protocol: Ligand binding by native TTR quenches the intrinsic fluorescence of the protein. After mixing of ligands with TTR in solution, monitoring emission of the intrinsic fluorescence over time defines the rate at which the ligand is bound by the protein. The fast phase of these binding kinetics was characterized using an SFM 3000 stopped flow device coupled to a MOS500 spectrometer with a fluorescence detection system (Bio Logic, Claix, France) and a cell path length of 1.5 mm. TTR and ligands at 37° C. were mixed at final concentrations of 1 μM each in PBS pH 7.4 containing 0.9% v/v DMSO, and were excited at 280 nm for measurement of total fluorescence emission over 325 nm using a cut off filter. Kinetic data were acquired as the average of at least 3 experimental mixings and fitted to a first order reaction using the general formula y(t)=at +b+C exp (−kt), where y(t) is the observed fluorescence, a (slope) and b (offset) corresponding to the baseline. C and k are, respectively, amplitude and rate constant of the observed fluorescence change. Data were analysed using the Biokine software and values of half-life time (t½) correspond to ln 2/k. (Table 3).

isolated wild type TTR = molecular target: T5, isolated wild type TTR (Homo sapiens, UniProt P02766); test: Displacement of 125I-T4 from isolated wild type TTR in buffer; settings: concentration of ligand reducing binding of 125I-T4 by TTR by 50%; 125 nM TTR, pH 8.0, overnight 4° C.; mean of at least 3 replicates; read-out: D50 buffer
T5 construct: the non-covalently associated protomers, of mass 13,761, each contain 127 residues; His6 (N); TEV cleavage site (N); made in house; host or cells: E. coli BL21 (DE3)
Protocol: 3. Evaluation of Ligand Activity Based on Capacity to Displace ^125I-Thyroxine (T4) from TTR in Buffer/Human Plasma 3.1 Displacement of ^125I-T4 from Isolated Wild Type TR.
Competition of ligands with T4 for binding by TTR was assayed quantitatively by a previously described procedure (Kolstoe et al., 2010). Briefly, a solution of 125 nM TTR in 0.1 M Tris-HCl, 0.1 M NaCl and 0.001 M EDTA buffer, pH 8.0, was incubated overnight at 4° C. in the presence of 1.07 nM ^125I T4 (1,200 μCi/μg, 200 μCi/ml, Perkin Elmer) and increasing concentrations of inhibitor (0-5 μM) in 40 μl final volume. ^125I T4 bound by TTR was separated from unbound T4 by gel filtration chromatography using Micro Bio Spin 6 columns (Bio-Rad) previously equilibrated with the reaction buffer containing 1% w/v BSA. After counting with a Wizard2 gamma counter (Perkin-Elmer) for 60 s, percentage binding was plotted against the logarithm of the inhibitor concentration, and D50 (concentration of ligand reducing the binding of T4 by TTR by 50%) was determined using a four parameters dose-response curve with GraphPad Prism 5 (Table 1).

[6] = background statement; cited from earlier work

| half-life (Rat IV pharmacokinetics) [h] | % Aggregation (Fluorescence method) [1] | IC50 [2] [nM] | % Aggregation (Turbidity method) [3] | Cmax [4] [ng/mL] | binding mode by NMR chemical shift changes ((2H, 13C, 15N) TTR) | T 1/2 [5] [s] | IC50 (isolated wild type TTR) [nM] | rate constant k of ligand-induced quenching reaction ([5]; TTR and ligand 1 μM each) [s⁻¹] | burst phase amplitude ([5]; millisecond time scale, fluorescence quenching) [%] | SMILES | bioavailability for an oral drug [6] | half-life in vivo [6] |
| --- | --- | --- | --- | --- | --- | --- | --- | --- | --- | --- | --- | --- |
| 5.11 | 12.6 (4.42) % | 9800 | 4.41 (1.99) % | 2580 | occupancy of both binding sites | 1.216 | 110 |  |  | CCc1oc(-c2cc(Cl)c(OCC[C@@H](O)[C@H](O)CCOc3c(Cl)cc(CCC(=O)O)cc3Cl)c(Cl)c2)nc1C(=O)O [Compound B23, 2-[4-[(3R,4R)-6-[4-(2-carboxyethyl)-2,6-dichloro-phenoxy]-3,4-dihydroxy-hexoxy]-3,5-dichloro-phenyl]-5-ethyl-oxazole-4-carboxylic acid] |  |  |
|  |  |  |  |  |  |  |  | 0.202 | 8 | O=C(O)c1ccccc1Nc1cc(Cl)c(OCCCCCCCOc2c(Cl)cc(Nc3ccccc3C(=O)O)cc2Cl)c(Cl)c1 [mds84, reference compound] | very poor | short |
| 5.34 | 12.0 (1.06) % | 2200 | 4.24 (1.96) % | 316 |  | 0.866 | 100 |  |  | O=C(O)CCc1cc(Cl)c(OCCCOCCOc2c(Cl)cc(Nc3ccncc3C(=O)O)cc2Cl)c(Cl)c1 [Compound B27, 4-[4-[2-[3-[4-(2-carboxyethyl)-2,6-dichloro-phenoxy]propoxy]ethoxy]-3,5-dichloro-anilino]pyridine-3-carboxylic acid] |  |  |
